In brackets after ≈: the same amount, converted by molar mass.

In ChEMBL document CHEMBL3352438, “Synthesis, characterization, molecular docking and anti-tubercular activity of Plumbagin-Isoniazid Analog and its β-cyclodextrin conjugate” (2014) one finds MIC data, which are given here for three molecules.

Common to all, as to assay type: functional
What all share (details): ATCC 27294, 120 h

Assay [1] relates to Mycobacterium tuberculosis. The assay is described as follows: Antitubercular activity against Mycobacterium tuberculosis ATCC 27294 in 7H9 medium after 5 days by Alamar blue assay.
For assay [2], the system named is Mycobacterium tuberculosis. Briefly: Antitubercular activity against Mycobacterium tuberculosis ATCC 27294 in high iron condition after 5 days by Alamar blue assay. For orientation: Resazurin is reduced to fluorescent resorufin, in cell work by metabolically active cells.
In assay [3] the test system is Mycobacterium tuberculosis. The assay is described as follows: Antitubercular activity against Mycobacterium tuberculosis ATCC 27294 in low iron condition after 5 days by Alamar blue assay.

For the molecule `NNC(=O)c1ccncc1` [ISONIAZID], the MIC is 0.25 µg/mL (≈ 1.82 µM) in assay [1], 0.125 µg/mL (≈ 0.911 µM) in assay [2] and 32 µg/mL (≈ 233 µM) in assay [3].
Taken in the same sequence, the figures for `CC1=CC(=O)c2c(O)cccc2C1=O` [PLUMBAGIN] were 32 µg/mL (≈ 170 µM), 4 µg/mL (≈ 21.3 µM) and 128 µg/mL (≈ 680 µM).
The corresponding values for `CC1=C/C(=N\NC(=O)c2ccncc2)c2c(O)cccc2C1=O` are 8 µg/mL (≈ 26 µM), 0.5 µg/mL (≈ 1.63 µM) and 2 µg/mL (≈ 6.51 µM).

As a reminder, the MIC is the lowest concentration that inhibits growth of the organism. A low value points to a more susceptible organism.
